Common to all, as to format: cell-based
One assay has as its system Huh7. Put plainly: Cancer cell proliferation inhibition, MTS assay, 72 hours. As to conditions: Homo sapiens, Huh-7. The procedure:
(§1) MTS assay was performed to evaluate the cancer cell proliferation inhibition (cancer cell apoptosis) effect of the compounds of examples of the present invention. Particularly, the assay was performed using the cancer cell lines GIST-T1, GIST-T1/816, GIST-430, GIST-430/654, GIST-R1, GIST-R3, M-NFS-60, RetParental (Ba/F3), Retwt (Ba/F3), RetV804M (Ba/F3), RET (LC2/ad-CDC6), FYN (MCP-1), FYN (FN), MDA-MB-231, Huh7, K562, T315I(Ba/F3), SK-MEL-28 and A375. Cell culture was performed using a medium suitable for each cell line.
(§2) Other cell lines were seeded in a 96-well plate containing the corresponding medium appropriate for each cell line at the density of 3,000 cells/well, followed by culture in a 5% CO2 and 37° C. incubator for 24 hours. The compounds of examples of the present invention were added to each well at the concentration of from the highest volume of 50 μM to every step of serial dilution. The solvent control, dimethylsulfoxide (DMSO), was treated at the same concentration of 0.05% (v/v) as the volume used for the treatment of the compounds above. Each cell line was cultured for 72 hours. To investigate the cell viability, the MTS and PMS (phenazine methosulfate) mixture provided in CellTiter 96® AQuous Non-Radioactive Cell Proliferation Assay Kit (Promega) was added to each cell culture medium, followed by additional culture at 37° C. for 2 hours. Then, OD450 was measured. Based on OD of the solvent control cells not treated with any compounds of the present invention, the cell proliferation inhibition rate was calculated according to the treatment concentration of each compound. At this time, the concentration of each compound that was able to inhibit cancer cell proliferation up to 50% was determined as IC50 (uM). IC50 of each compound was determined with three data sets and calculated by using Prism softwater (version 6.01, GraphPad).
On the technique in general: Tetrazolium assays rely on reduction of a dye to a coloured formazan, in cell work by metabolically active cells.

The test system of a further assay is SK-MEL-28. Described as above. As to conditions: Homo sapiens. The method, then:
as §1, §2

Another assay relates to K562. Put plainly: Cancer cell proliferation inhibition, CCK-8, 72 hours. The settings on record: Homo sapiens, K562, 72 h. The method, then:
as §1
(§3) In the meantime, MDA-MB-231 and A375 cells were seeded in a 96well plate at the density of 2×10^3/100 μl/well, which stood for a day for attachment. The culture fluid was eliminated. After removing the culture medium, the medium was replaced with the culture medium containing the compounds of the present invention at 3-times serially diluted 9 concentrations (0.0015-10 μM) and the DMSO control, followed by incubation in a 37° C. CO2 incubator for 72 hours. On the other hand, K-562 and Ba/F3-T315I cells were seeded in a 96-well plate at the density of 1×10^4/90 μl/well. The plate containing K-562 cells was added with the culture medium containing the compounds of the present invention at 3-times serially diluted 9 concentrations (0.015-100 μM) and the DMSO control (10 μl/well). The plate containing Ba/F3-T315I cells was added with the culture medium containing the compounds of the present invention at 5-times serially diluted 9 concentrations (0.000256-100 μM) and the DMSO control (10 μl/well). The final concentration was made 0-10 μM and then the cells were cultured in a 37° C. CO2 incubator for 72 hours.
(§4) A375, K-562 and Ba/F3-T315I cells were added with CCK-8 solution at the concentration of 10 μl/well, followed by orbital shaking for 30 seconds. Then, the cells were cultured in a 37° C. CO2 incubator for 2 hours. OD450 was measured by using a microplate reader. The OD value of the well treated with the culture medium and CCK-8 solution alone was subtracted from the OD value measured above, followed by calculation of IC50 using GraphPad Prism 6 software.

Another assay deals with A375. The description is as above. As to conditions: Homo sapiens, A-375, 72 h. The method, then: as §1, §3, §4
For the next assay, the target named is T1, T315I (Ba/F3) (Homo sapiens, UniProt P00519, T315I, cells depend on it).
T1 construct: fused on or other part: P11274 (Breakpoint cluster region protein)
The description is as above. The settings on record: read-out: T315I (Ba/F3) IC50. The procedure:
as §1, §3, §4

The subject of another assay is MDA-MB-231. Put plainly: Real time cell proliferation, IncuCyte ZOOM, 72 hours. The settings on record: Homo sapiens, MDA-MB-231, 72 h.
For a further assay, the system named is RET (LC2/ad-CDC6). Put plainly: Cancer cell proliferation inhibition, MTS assay, 72 hours. As to conditions: 72 h. The procedure: as §1, §2
A further assay has as its system M-NFS-60. The assay is described as follows: Cancer cell proliferation inhibition, CCK-8, 72 hours. The method, then: as §1
M-NFS-60 cell line was cultured in the complete growth medium prepared by adding 10% FBS, 0.05 mM 2-mercaptoethanol and 62 ng of human M-CSF to RPMI. When the confluence reached 80% in T-75 flask, the cells were collected in a 50 ml tube for seeding, followed by centrifugation at 800 rpm for 5 minutes. The cells were suspended in 10 mL of growth medium. The cell number was counted by using a hematocytometer to determine the necessary cell number and the medium volume for seeding. The cells were seeded in a 96-well plate at the density of 20000 cells/well (200 μL/well), followed by stabilization in a 37° C. CO2 incubator, while the compounds of the present invention were prepared. The compounds of the present invention were serially diluted with DMSO at the ratio of 1/3 with setting the maximum concentration at 1968 nM, which were loaded in a new V-bottom 96-well plate, resulting in the preparation of total 11 concentrations including the DMSO control. The cells that had been placed in the incubator were taken out, to which the compounds of the present invention were added (2 μl/well). The plate treated with the compounds was cultured in a 37° C. CO2 incubator for 72 hours. 72 hours later, the plate treated with the compounds was taken out, to which CCK-8 solution was treated (20 μl/well). After well mixing, the plate was further cultured in a 37° C. CO2 incubator for 2 hours. Then, OD450 was measured by using a microplate reader. To obtain accurate results, the wells displaying bubbles were eliminated from the measurement.

The structures appear in SMILES notation.

What is called IC50 is the concentration that inhibits the measured activity by half. Lower therefore signals higher potency. Consider `Cc1ccc(C(=O)Nc2ccccc2F)cc1C#Cc1cnc2c(Nc3cnn(C)c3)cccn12` [Example 2, N-(2-fluorophenyl)-4-methyl-3-((8-((1-methyl-1H-pyrazol-4-yl)amino)imidazo[1,2-a]pyridin-3-yl)ethynyl)benzamide], for which the IC50 in the assay with Huh7 was over 50000 nM; in the assay with SK-MEL-28 it was over 10000 nM; in the assay on K562, 12 nM; in the assay with A375 it was over 10000 nM; with MDA-MB-231, over 10000 nM. Besides, the GI50 on T315I (Ba/F3) is over 10000 nM.
`COCCn1cc(Nc2cccn3c(C#Cc4cc(C(=O)Nc5ccc(CN6CCN(C)[C@@H](C)C6)c(C(F)(F)F)c5)ccc4C)cnc23)cn1` [Example 44, (S)—N-(4-((3,4-dimethylpiperazin-1-yl)methyl)-3-(trifluoromethyl)phenyl)-3-((8-((1-(2-methoxyethyl)-1H-pyrazol-4-yl)amino)imidazo[1,2-a]pyridin-3-yl)ethynyl)-4-methylbenzamide]: the IC50 was 165 nM with Huh7; 10 nM in the assay on RET (LC2/ad-CDC6); 12 nM in the assay on K562; 183 nM in the assay on A375; 38.8 nM in the assay with M-NFS-60; 240 nM in the assay on MDA-MB-231. The GI50 at T315I (Ba/F3) turned out to be 42.2 nM.
In the case of `CCN1CCN(Cc2ccc(NC(=O)c3ccc(C)c(C#Cc4cnc5c(Nc6ccc(C)cc6)cccn45)c3)cc2C(F)(F)F)CC1` [Example 25, N-(4-((4-ethylpiperazin-1-yl)methyl)-3-(trifluoromethyl)phenyl)-4-methyl-3-((8-(p-toylamino)imidazo[1,2-a]pyridin-3-yl)ethynyl)benzamide], the concentration for half-maximal inhibition (IC50) was 17300 nM in the assay on Huh7; under 1000 nM in the assay on RET (LC2/ad-CDC6); 2090 nM with SK-MEL-28; 52 nM with K562; 3710 nM in the assay with A375; 3040 nM in the assay with MDA-MB-231. In addition, the GI50 on T315I (Ba/F3) was 619 nM.
On to `Cc1ccc(C(=O)Nc2ccc(CN3CC[C@H](N(C)C)C3)c(C(F)(F)F)c2)cc1C#Cc1cnc2c(Nc3cnn(C)c3)cccn12` [Example 51, (S)—N-(4-((3-(dimethylamino)pyrrolidin-1-yl)methyl)-3-(trifluoromethyl)phenyl)-4-methyl-3-((8-((1-methyl-1H-pyrazol-4-yl)amino)imidazo[1,2-a]pyridin-3-yl)ethynyl)benzamide], for which the IC50 was 87.8 nM in the assay on Huh7; over 10 nM in the assay on RET (LC2/ad-CDC6); under 1 nM in the assay on K562; 249 nM in the assay on A375; 31.1 nM in the assay with M-NFS-60; 319 nM in the assay on MDA-MB-231. On T315I (Ba/F3), the GI50 amounted to 28.8 nM.
`Cc1ccc(C(=O)Nc2ccc(CN3CCN(C)CC3)c(C(F)(F)F)c2)cc1C#Cc1cnc2c(Nc3cccc(C(C)(C)O)n3)cccn12` [Example 64, 3-((8-(6-(2-hydroxypropan-2-yl)pyridin-2-yl)aminoimidazo[1,2-a]pyridin-3-yl)ethynyl)-4-methyl-N-(4-((4-methylpiperazin-1-yl)methyl)-3-(trifluoromethyl)phenyl)benzamide]: the IC50 in the assay on RET (LC2/ad-CDC6) was over 10 nM; in the assay with K562 it was 3 nM; with A375 it was 741 nM; in the assay on M-NFS-60 it was 127 nM; in the assay on MDA-MB-231, 987 nM. Also, at T315I (Ba/F3), the GI50 worked out at 75 nM.
`Cc1ccc(C(=O)Nc2ccc(CN3CC[C@@H](N(C)C)C3)c(C(F)(F)F)c2)cc1C#Cc1cnc2c(Nc3cnn(C)c3)cccn12` [Example 50, (R)—N-(4-((3-(dimethylamino)pyrrolidin-1-yl)methyl)-3-(trifluoromethyl)phenyl)-4-methyl-3-((8-((1-methyl-1H-pyrazol-4-yl)amino)imidazo[1,2-a]pyridin-3-yl)ethynyl)benzamide]: the half-inhibitory concentration (IC50) with Huh7 is 57 nM; in the assay with RET (LC2/ad-CDC6), over 10 nM; with K562, under 1 nM; in the assay on A375, 224 nM; with M-NFS-60, 40.3 nM; in the assay with MDA-MB-231, 325 nM. The GI50 at T315I (Ba/F3) amounted to 28.2 nM.

These data come from patent US10870647B2, “Imidazopyridine derivative, method for preparing same, and pharmaceutical composition containing same as active ingredient for preventing or treating cancer” (DAEGU-GYEONGBUK MEDICAL INNOVATION FOUNDATION, priority 2016, dated 2020).
